# Species on record: Rattus norvegicus
# Assay: Open TG-GATES - Regimen: Single
# Type: toxicity, organism-based, Sprague-Dawley
# Parameters: regimen Single, gender Male, age 6 weeks
# Conditions: in vivo, iv, 20 mg/kg, route intravenous injection, dose level Middle; for APTT / Bas / Eos / Fbg / Hb / Ht / Lym / MCH / MCHC / MCV / Mono / Neu / PT / Plat / RBC / Ret / WBC: tissue Blood; for KIDNEY_L / KIDNEY_R / KIDNEY_TOTAL: tissue Kidney; for LIVER: tissue Liver; for A/G / ALP / ALT / AST / BUN / CRE / Ca / Cl / DBIL / GLC / IP / K / LDH / Na / PL / RALB / TBIL / TC / TG / TP / gamma-GTP: tissue Plasma
compound,measurement,setting,value
NCCBr [BROMOETHANAMINE],TERMINAL_BW,3 h,213.1 g
same,APTT,3 h,23.3 s
same,Bas,3 h,0%
same,Eos,3 h,0.8%
same,Fbg,3 h,304 mg/dL
same,Hb,3 h,13.6 g/dL
same,Ht,3 h,39.3%
same,Lym,3 h,77.8%
same,MCH,3 h,21.5 pg
same,MCHC,3 h,34.7%
same,MCV,3 h,61.9 fL
same,Mono,3 h,2.2%
same,Neu,3 h,18.8%
same,PT,3 h,16.2 s
same,Plat,3 h,141.3 x10_4/uL
same,RBC,3 h,635 x10_4/ul
same,Ret,3 h,5.8%
same,WBC,3 h,60.9 x10_2/uL
same,KIDNEY_L,3 h,0.9 g
same,KIDNEY_R,3 h,0.9 g
same,KIDNEY_TOTAL,3 h,1.9 g
same,LIVER,3 h,9.4 g
same,A/G,3 h,1.2
same,ALP,3 h,1554.2 IU/L
same,ALT,3 h,41.2 IU/L
same,AST,3 h,67.2 IU/L
same,BUN,3 h,11.6 mg/dL
same,CRE,3 h,0.1 mg/dL
same,Ca,3 h,10.8 mg/dL
same,Cl,3 h,105 meq/L
same,DBIL,3 h,0 mg/dL
same,GLC,3 h,189.8 mg/dL
same,IP,3 h,9.8 mg/dL
same,K,3 h,3.8 meq/L
same,LDH,3 h,210 IU/L
same,Na,3 h,143.2 meq/L
same,PL,3 h,130.8 mg/dL
same,RALB,3 h,3.1 g/dL
same,TBIL,3 h,0.014 mg/dL
same,TC,3 h,79.4 mg/dL
same,TG,3 h,50.2 mg/dL
same,TP,3 h,5.7 g/dL
same,gamma-GTP,3 h,1.6 IU/L
same,TERMINAL_BW,6 h,214.7 g
same,APTT,6 h,23.7 s
same,Bas,6 h,0%
same,Eos,6 h,1%
same,Fbg,6 h,308.8 mg/dL
same,Hb,6 h,13.5 g/dL
same,Ht,6 h,39.4%
same,Lym,6 h,74.4%
same,MCH,6 h,21.6 pg
same,MCHC,6 h,34.3%
same,MCV,6 h,63 fL
same,Mono,6 h,2.2%
same,Neu,6 h,21.4%
same,PT,6 h,16.1 s
same,Plat,6 h,126.9 x10_4/uL
same,RBC,6 h,624.6 x10_4/ul
same,Ret,6 h,6.1%
same,WBC,6 h,83.3 x10_2/uL
same,KIDNEY_L,6 h,1 g
same,KIDNEY_R,6 h,1 g
same,KIDNEY_TOTAL,6 h,2 g
same,LIVER,6 h,8.8 g
same,A/G,6 h,1.2
same,ALP,6 h,1286 IU/L
same,ALT,6 h,34.2 IU/L
same,AST,6 h,68.6 IU/L
same,BUN,6 h,9.8 mg/dL
same,CRE,6 h,0.2 mg/dL
same,Ca,6 h,10.5 mg/dL
same,Cl,6 h,105.8 meq/L
same,DBIL,6 h,0 mg/dL
same,GLC,6 h,183.4 mg/dL
same,IP,6 h,9.9 mg/dL
same,K,6 h,4.2 meq/L
same,LDH,6 h,183.2 IU/L
same,Na,6 h,142 meq/L
same,PL,6 h,117.2 mg/dL
same,RALB,6 h,2.9 g/dL
same,TBIL,6 h,0.026 mg/dL
same,TC,6 h,74.4 mg/dL
same,TG,6 h,28.8 mg/dL
same,TP,6 h,5.5 g/dL
same,gamma-GTP,6 h,1.6 IU/L
same,TERMINAL_BW,9 h,205.7 g
same,APTT,9 h,23.8 s
same,Bas,9 h,0%
same,Eos,9 h,0.6%
same,Fbg,9 h,343 mg/dL
same,Hb,9 h,13.9 g/dL
same,Ht,9 h,40%
same,Lym,9 h,74.4%
same,MCH,9 h,21 pg
same,MCHC,9 h,34.7%
same,MCV,9 h,60.5 fL
same,Mono,9 h,3%
same,Neu,9 h,21.2%
same,PT,9 h,15.9 s
same,Plat,9 h,121.7 x10_4/uL
same,RBC,9 h,662.2 x10_4/ul
same,Ret,9 h,5.5%
same,WBC,9 h,69.4 x10_2/uL
same,KIDNEY_L,9 h,1 g
same,KIDNEY_R,9 h,1 g
same,KIDNEY_TOTAL,9 h,2 g
same,LIVER,9 h,8.4 g
same,A/G,9 h,1.1
same,ALP,9 h,1380.4 IU/L
same,ALT,9 h,32.6 IU/L
same,AST,9 h,63 IU/L
same,BUN,9 h,12.2 mg/dL
same,CRE,9 h,0.2 mg/dL
same,Ca,9 h,10.6 mg/dL
same,Cl,9 h,105.4 meq/L
same,DBIL,9 h,0 mg/dL
same,GLC,9 h,187 mg/dL
same,IP,9 h,9.4 mg/dL
same,K,9 h,3.7 meq/L
same,LDH,9 h,170.6 IU/L
same,Na,9 h,142.8 meq/L
same,PL,9 h,139 mg/dL
same,RALB,9 h,3 g/dL
same,TBIL,9 h,0.018 mg/dL
same,TC,9 h,80.2 mg/dL
same,TG,9 h,66.2 mg/dL
same,TP,9 h,5.8 g/dL
same,gamma-GTP,9 h,1.2 IU/L
same,TERMINAL_BW,24 h,213.8 g
same,APTT,24 h,22.4 s
same,Bas,24 h,0%
same,Eos,24 h,0.8%
same,Fbg,24 h,384.6 mg/dL
same,Hb,24 h,13.9 g/dL
same,Ht,24 h,40.7%
same,Lym,24 h,80.8%
same,MCH,24 h,21.1 pg
same,MCHC,24 h,34%
same,MCV,24 h,61.9 fL
same,Mono,24 h,2.6%
same,Neu,24 h,15%
same,PT,24 h,16.4 s
same,Plat,24 h,123.2 x10_4/uL
same,RBC,24 h,659.2 x10_4/ul
same,Ret,24 h,4.9%
same,WBC,24 h,85.8 x10_2/uL
same,KIDNEY_L,24 h,1 g
same,KIDNEY_R,24 h,1 g
same,KIDNEY_TOTAL,24 h,2 g
same,LIVER,24 h,9.5 g
same,A/G,24 h,1.1
same,ALP,24 h,1544 IU/L
same,ALT,24 h,41.8 IU/L
same,AST,24 h,69.8 IU/L
same,BUN,24 h,25.6 mg/dL
same,CRE,24 h,0.2 mg/dL
same,Ca,24 h,11 mg/dL
same,Cl,24 h,105.6 meq/L
same,DBIL,24 h,0.002 mg/dL
same,GLC,24 h,190.4 mg/dL
same,IP,24 h,6.7 mg/dL
same,K,24 h,4.2 meq/L
same,LDH,24 h,200.8 IU/L
same,Na,24 h,142.8 meq/L
same,PL,24 h,152.2 mg/dL
same,RALB,24 h,3 g/dL
same,TBIL,24 h,0.012 mg/dL
same,TC,24 h,89.6 mg/dL
same,TG,24 h,89 mg/dL
same,TP,24 h,5.7 g/dL
same,gamma-GTP,24 h,2.2 IU/L

# Source: ChEMBL document CHEMBL3885861, “Open TG-GATES”
